Calls of active or inactive are those of the source. The calls are words filed in the database; no cut-off is given here.
How the values were obtained:
Format in all cases: cell-based
[1] = target: T1, Ecdysone receptor (Drosophila melanogaster) (UniProt P34021+P20153); experiment: Agonist activity at ecdysone receptor in Drosophila melanogaster S2 cells at 100 uM after 24 hr by luciferase reporter gene assay relative to 20-hydroxyecdysone
[2] = target: T2, Ecdysone receptor (Drosophila melanogaster, UniProt P20153+P34021); experiment: (§1) Agonist activity at ecdysone receptor in Drosophila melanogaster S2 cells after 24 hr by luciferase reporter gene assay
T2 sequence (P34021 whole entry): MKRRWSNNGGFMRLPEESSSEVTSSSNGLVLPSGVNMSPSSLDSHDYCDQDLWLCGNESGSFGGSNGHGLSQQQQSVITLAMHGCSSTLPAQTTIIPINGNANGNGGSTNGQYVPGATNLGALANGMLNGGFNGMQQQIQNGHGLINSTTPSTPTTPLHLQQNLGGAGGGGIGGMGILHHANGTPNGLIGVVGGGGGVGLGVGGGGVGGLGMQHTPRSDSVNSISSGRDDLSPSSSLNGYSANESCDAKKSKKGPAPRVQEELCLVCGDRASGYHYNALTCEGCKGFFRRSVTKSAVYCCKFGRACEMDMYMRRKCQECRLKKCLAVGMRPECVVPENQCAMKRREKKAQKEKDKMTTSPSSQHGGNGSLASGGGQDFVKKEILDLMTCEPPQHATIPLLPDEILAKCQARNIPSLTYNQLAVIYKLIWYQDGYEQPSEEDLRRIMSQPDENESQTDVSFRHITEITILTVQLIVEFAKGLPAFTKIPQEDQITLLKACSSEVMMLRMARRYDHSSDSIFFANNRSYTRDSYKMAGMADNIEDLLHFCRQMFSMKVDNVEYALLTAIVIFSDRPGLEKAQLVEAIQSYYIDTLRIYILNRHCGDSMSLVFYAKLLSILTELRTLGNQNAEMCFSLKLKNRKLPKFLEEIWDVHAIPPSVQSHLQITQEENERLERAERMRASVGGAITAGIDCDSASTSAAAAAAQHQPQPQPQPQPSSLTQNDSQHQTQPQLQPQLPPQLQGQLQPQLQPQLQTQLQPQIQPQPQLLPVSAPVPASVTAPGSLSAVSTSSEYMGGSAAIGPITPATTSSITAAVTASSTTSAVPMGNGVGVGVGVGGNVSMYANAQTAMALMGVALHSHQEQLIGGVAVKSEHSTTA
T2 sequence (P20153 whole entry): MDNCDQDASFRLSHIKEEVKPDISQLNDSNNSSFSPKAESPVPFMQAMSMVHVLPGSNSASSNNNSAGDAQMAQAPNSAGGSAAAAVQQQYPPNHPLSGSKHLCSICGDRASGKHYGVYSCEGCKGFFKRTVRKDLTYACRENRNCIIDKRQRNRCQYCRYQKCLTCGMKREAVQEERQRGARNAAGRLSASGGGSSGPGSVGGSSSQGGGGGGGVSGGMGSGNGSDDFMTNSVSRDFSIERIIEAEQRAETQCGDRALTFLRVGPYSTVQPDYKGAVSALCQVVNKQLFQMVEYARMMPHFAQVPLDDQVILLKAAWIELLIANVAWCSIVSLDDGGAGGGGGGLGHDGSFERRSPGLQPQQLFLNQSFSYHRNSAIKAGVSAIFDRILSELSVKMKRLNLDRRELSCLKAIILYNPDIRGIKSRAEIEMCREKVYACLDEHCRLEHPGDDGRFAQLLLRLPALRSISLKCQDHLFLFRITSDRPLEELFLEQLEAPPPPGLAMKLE

[3] = target: T3, Ecdysone receptor (Bombyx mori, UniProt P49881); experiment: Agonist activity at ecdysone receptor in Bombyx mori Bm5 cells after 24 hr by luciferase reporter gene assay
T3 sequence (P49881 whole entry): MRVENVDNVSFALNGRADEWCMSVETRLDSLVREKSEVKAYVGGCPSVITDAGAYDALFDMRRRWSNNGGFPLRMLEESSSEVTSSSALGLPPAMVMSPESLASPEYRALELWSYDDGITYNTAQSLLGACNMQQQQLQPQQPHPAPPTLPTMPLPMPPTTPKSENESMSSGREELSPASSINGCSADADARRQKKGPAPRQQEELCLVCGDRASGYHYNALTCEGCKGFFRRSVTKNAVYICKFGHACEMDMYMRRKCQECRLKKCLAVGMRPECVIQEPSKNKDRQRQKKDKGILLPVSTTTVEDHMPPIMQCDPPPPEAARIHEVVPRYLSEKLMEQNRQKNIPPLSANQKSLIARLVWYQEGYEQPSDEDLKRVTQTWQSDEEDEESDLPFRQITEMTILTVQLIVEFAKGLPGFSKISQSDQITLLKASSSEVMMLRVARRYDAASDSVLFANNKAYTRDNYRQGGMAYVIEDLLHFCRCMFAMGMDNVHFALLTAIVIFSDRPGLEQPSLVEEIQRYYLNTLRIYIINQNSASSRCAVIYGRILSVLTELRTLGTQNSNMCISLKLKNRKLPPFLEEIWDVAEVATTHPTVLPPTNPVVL

[4] = target: T1, Ecdysone receptor (Drosophila melanogaster); experiment: as §1

| Compound | Efficacy [1] | EC50 [2] | EC50 [3] | pEC50 [4] |
| --- | --- | --- | --- | --- |
| CC(C)c1ccc(C(=O)NN(C(=O)c2ccccc2Cl)C(C)(C)C)cc1 | 88% | 12 µM | 24.5 nM | – |
| CC(C)(C)N(NC(=O)c1ccccc1)C(=O)c1ccc(Cl)cc1Cl | 40% | 148 µM | 117 nM | – |
| CC(C)(C)N(NC(=O)c1ccc(Cl)cc1)C(=O)c1ccccc1Cl | 52% | 81.3 µM | 115 nM | – |
| Cc1cc(C)cc(C(=O)N(NC(=O)CCC(C)C)C(C)(C)C)c1 | 35% | > 100 µM | 91.2 nM | – |
| CCCCCCCC(=O)NN(C(=O)c1cc(C)cc(C)c1)C(C)(C)C | – | – | 97.7 nM | inactive |
| CCCCCCC(=O)N(NC(=O)c1ccccc1)C(C)(C)C | – | – | 7240 nM | inactive |
| COc1ccc(C(=O)NN(C(=O)c2ccccc2Cl)C(C)(C)C)cc1 | 112% | 11.2 µM | 51.3 nM | – |
| CCCCCC(=O)N(NC(=O)c1ccc(CC)cc1)C(C)(C)C | – | – | 2820 nM | inactive |
| Cc1cccc(C(=O)NN(C(=O)c2ccccc2Cl)C(C)(C)C)c1 | 48% | 107 µM | 603 nM | – |
| Cc1cc(C)c(Cl)c(C(=O)N(NC(=O)c2ccccc2)C(C)(C)C)c1 | 2% | > 100 µM | – | – |
| CC(C)(C)N(NC(=O)c1cccc(Cl)c1Cl)C(=O)c1ccccc1Cl | 74% | 7.76 µM | 9.33 nM | – |
| CCCCN(NC(=O)c1ccccc1)C(=O)c1ccccc1 | 4% | > 100 µM | 7080 nM | – |
| CC(C)(C)N(NC(=O)c1ccc(F)cc1)C(=O)c1ccccc1Cl | 62% | 37.2 µM | 389 nM | – |
| Cc1cc(C)cc(C(=O)C2(NC(=O)C(F)(F)F)CCCCC2)c1 | – | – | – | inactive |
| CCc1ccc(C(=O)NN(C(=O)c2cccc3ccccc23)C(C)(C)C)cc1 | 53% | 10.5 µM | 13.2 nM | – |
| O=C(NN(C(=O)c1ccccc1)c1ccccc1)c1ccccc1 | 6% | > 100 µM | 25700 nM | – |
| CCCCC(=O)NN(C(=O)c1cc(C)cc(C)c1)C(C)(C)C | – | – | 1860 nM | inactive |
| CC(C)(C)N(NC(=O)c1ccccc1Br)C(=O)c1ccccc1Cl | 59% | 60.3 µM | 316 nM | – |
| COc1cccc(C(=O)NN(C(=O)c2ccccc2Cl)C(C)(C)C)c1C | 77% | 16.6 µM | 15.5 nM | – |
| CCCCCCC(=O)NN(C(=O)c1ccccc1Cl)C(C)(C)C | 10% | > 100 µM | 741 nM | – |
| CC(C)(C)N(NC(=O)c1cccc(Br)c1)C(=O)c1ccccc1Cl | 80% | 13.2 µM | 191 nM | – |
| Cc1cc(C)cc(C(=O)NN(C(=O)CCC(C)C)C(C)(C)C)c1 | – | – | 14500 nM | inactive |
| Cc1cc(C)cc(C(=O)NN(C(=O)CCCC(C)C)C(C)(C)C)c1 | – | – | > 100000 nM | inactive |
| CCc1ccc(C(=O)NN(C(=O)C2CCCCC2)C(C)(C)C)cc1 | – | – | 9330 nM | inactive |
| CCc1ccc(C(=O)NN(C(=O)C2CC=CCC2)C(C)(C)C)cc1 (configuration not stated) | 1% | > 100 µM | 1000 nM | – |
| CCCCN(C(=O)c1ccccc1)N(C(=O)c1ccccc1)C(C)(C)C | – | – | > 100000 nM | inactive |
| O=C(NN(C(=O)c1ccccc1)C1CCCCC1)c1ccccc1 | 18% | > 100 µM | 891 nM | – |

| Compound | Efficacy [1] | EC50 [2] | EC50 [3] | pEC50 [4] |
| --- | --- | --- | --- | --- |
| Cc1ccc(C(=O)NN(C(=O)c2ccccc2Cl)C(C)(C)C)cc1C | 60% | 66.1 µM | 87.1 nM | – |
| CC(C)(C)N(NC(=O)c1ccccc1)C(=O)C1CCCCC1 | – | – | 46800 nM | inactive |
| CN(NC(=O)c1ccccc1)C(=O)c1ccccc1 | – | – | > 100000 nM | inactive |
| CCc1ccccc1C(=O)N(NC(=O)c1ccccc1)C(C)(C)C | 50% | 97.7 µM | 589 nM | – |
| CCc1ccc(C(=O)NN(C(=O)CCC(C)C)C(C)(C)C)cc1 | – | – | 832 nM | inactive |
| CCCCCC(=O)NN(C(=O)c1cc(C)cc(C)c1)C(C)(C)C | 36% | > 100 µM | 79.4 nM | – |
| CC(C)(C)N(NC(=O)c1cccc(C#N)c1)C(=O)c1ccccc1Cl | 67% | 36.3 µM | 955 nM | – |
| COc1cccc(C(=O)NN(C(=O)c2ccccc2Cl)C(C)(C)C)c1 | 58% | 72.4 µM | 52.5 nM | – |
| Cc1ccccc1C(=O)NN(C(=O)c1ccccc1Cl)C(C)(C)C | 83% | 25.7 µM | 72.4 nM | – |
| CCCCCCC(=O)N(NC(=O)c1ccc(CC)cc1)C(C)(C)C | – | – | 11700 nM | inactive |
| CCc1ccc(C(=O)NC(C(=O)c2cc(C)cc(C)c2)C(C)(C)C)cc1 (racemic) | – | – | – | inactive |
| CCOc1cccc(C(=O)NN(C(=O)c2cc(C)cc(C)c2)C(C)(C)C)c1C | 71% | 12 µM | 52.5 nM | – |
| CC(C)(C)N(NC(=O)c1ccccc1F)C(=O)c1ccccc1Cl | 73% | 33.9 µM | 51.3 nM | – |
| CCc1ccc(C(=O)NC(CC)(CC)C(=O)c2cc(C)cc(C)c2)cc1 | – | – | – | inactive |
| CC(C)(C)N(Cc1ccccc1)NC(=O)c1ccccc1 | 1% | > 100 µM | – | – |
| CCC(CC)(NC(=O)c1ccc2c(c1C)CCCO2)C(=O)c1cc(C)cc(C)c1 | – | – | – | inactive |
| CC(C)(C)N(NC(=O)c1ccc(C#N)cc1)C(=O)c1ccccc1Cl | 52% | 93.3 µM | 603 nM | – |
| COc1cccc(C(=O)NN(C(=O)c2cc(C)cc(C)c2)C(C)(C)C)c1 | 60% | 45.7 µM | 66.1 nM | – |
| CC(C)(C)N(NC(=O)c1cccc(F)c1)C(=O)c1ccccc1Cl | 76% | 25.7 µM | 69.2 nM | – |
| Cc1ccc(C)c(C(=O)NN(C(=O)c2ccccc2Cl)C(C)(C)C)c1 | 46% | 107 µM | 1620 nM | – |
| CC(C)CN(NC(=O)c1ccccc1)C(=O)c1ccccc1 | 33% | > 100 µM | 2880 nM | – |
| CC(C)(C)N(NC(=O)c1ccccc1I)C(=O)c1ccccc1Cl | 54% | 87.1 µM | 1290 nM | – |
| CCc1ccc(C(=O)NN(C(=O)c2ccccc2)C(C)(C)C)cc1 | 52% | 5.5 µM | 4.9 nM | – |
| Cc1cccc(C(=O)NN(C(=O)c2ccccc2Cl)C(C)(C)C)c1C | 76% | 11.5 µM | 20 nM | – |
| Cc1cc(C)cc(C(=O)N(NC(=O)c2ccccc2)C(C)(C)C)c1 | 57% | 66.1 µM | 69.2 nM | – |
| O=C(NN(CC1CCCCC1)C(=O)c1ccccc1)c1ccccc1 | 1% | > 100 µM | 1700 nM | – |
